Tests used:
Human tumor cells = assay: Soft agar assay (anchorage-independent growth); format: cell-based; conditions: colony outgrowth 10-16 days
Method: Anchorage-independent growth is a characteristic of tumorigenic cell lines. Human tumor cells are suspended in growth medium containing 0.3% agarose and an indicated concentration of a farnesyl transferase inhibitor. The solution is overlayed onto growth medium solidified with 0.6% agarose containing the same concentration of farnesyl transferase inhibitor as the top layer. After the top layer is solidified, plates are incubated for 10-16 days at 37° C. under 5% CO2 to allow colony outgrowth. After incubation, the colonies are stained by overlaying the agar with a solution of MTT (3-[4,5-dimethylthiazol-2-yl]-2,5-diphenyltetrazolium bromide, Thiazolyl blue) (1 mg/mL in PBS). Colonies are counted and the IC50's determined.

[1] = target: T1, Farnesyl protein transferase (FPT) (Rattus norvegicus, UniProt Q02293+Q04631); assay: In vitro enzyme assay: inhibition of farnesyl protein transferase; format: biochemical; conditions: transfer of [3H]farnesyl from [3H]farnesyl pyrophosphate to Ras-CVLS
T1 construct: partially purified from rat brain by ammonium sulfate fractionation followed by Q-Sepharose; from tissue; host or cells: rat brain
T1 sequence (Q02293 whole entry, one chain of several): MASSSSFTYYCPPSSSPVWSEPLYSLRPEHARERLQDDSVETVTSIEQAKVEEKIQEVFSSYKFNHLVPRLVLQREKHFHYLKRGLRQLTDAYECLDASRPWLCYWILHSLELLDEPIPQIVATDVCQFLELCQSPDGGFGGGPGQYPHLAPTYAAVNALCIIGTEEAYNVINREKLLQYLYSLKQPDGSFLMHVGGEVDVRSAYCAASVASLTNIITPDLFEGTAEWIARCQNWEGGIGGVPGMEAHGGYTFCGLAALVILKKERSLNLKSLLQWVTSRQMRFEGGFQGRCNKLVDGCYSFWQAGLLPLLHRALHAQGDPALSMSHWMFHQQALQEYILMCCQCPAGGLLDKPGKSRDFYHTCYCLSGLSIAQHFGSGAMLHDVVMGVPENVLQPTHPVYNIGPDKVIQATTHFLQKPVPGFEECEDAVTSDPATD
Method: 1. In Vitro Enzyme Assay:
Human farnesyl protein transferase was also expressed in E. coli, using cDNA clones encoding both the a and b subunits. […] Human farnesyl protein transferase was partially-purified from the soluble protein fraction of E. coli as described above. […] Two forms of val^12-Ha-Ras protein were prepared as substrates for these enzymes, differing in their carboxy terminal sequence. One form terminated in cysteine-valine-leucine-serine (Ras-CVLS) the other in cystein-valine-leucine-leucine (Ras-CVLL). Ras-CVLS is a substrate for the farnesyl protein transferase while Ras-CVLL is a substrate for geranylgeranyl protein transferase I. The cDNAs encoding these proteins were constructed so that the proteins contain an amino-terminal extension of 6 histidine residues. Both proteins were expressed in Escherichia coli and purified using metal chelate affinity chromatography. The radio labelled isoprenyl pyrophosphate substrates, [^3H]farnesyl pyrophosphate and [^3H] geranylgeranyl pyrophosphate, were purchased from DuPont/New England Nuclear.
The reaction was allowed to proceed for 30 minutes at room temperature and then stopped with 0.5 ml of 4% sodium dodecyl sulfate (SDS) followed by 0.5 ml of cold 30% TCA. Samples were allowed to sit on ice for 45 minutes and precipitated Ras protein was then collected on GF/C filter paper mats using a Brandel cell harvester. […] Percent inhibition was calculated relative to the DMSO vehicle control.

Structure (SMILES) | IC50 (Human tumor cells) [µM] | IC50 [1] [µM] | melting point [°C]
O=C(Cc1cc[n+]([O-])cc1)N1CCC(C2c3ncc(Br)cc3C=Cc3cc(Cl)cc(Br)c32)CC1 (single isomer, unassigned) [Compound 11] | 0.03 | 0.00032 | 137 to 139
CS(=O)(=O)N1CCC(C2c3ncc(Br)cc3C=Cc3cc(Cl)cc(Br)c32)CC1 (single isomer, unassigned) [Compound 13] | > 0.5 | 0.0033 | 84 to 85
CS(=O)(=O)N1CCC(C2c3ncc(Br)cc3C=Cc3cc(Cl)cc(Br)c32)CC1 (single isomer, unassigned) [Compound 14] |  | > 0.018 | 91 to 92

Results, then the compound that gave them:

IC50 (Human tumor cells) [µM] | IC50 [1] [µM] | melting point [°C] | Structure (SMILES)
 | > 0.017 | 142 to 143 | O=C(Cc1cc[n+]([O-])cc1)N1CCC(C2c3ncc(Br)cc3C=Cc3cc(Cl)cc(Br)c32)CC1 (single isomer, unassigned) [Compound 12]
0.05 | 0.0004 | 146 to 147 | NC(=O)N1CCC(CC(=O)N2CCC(C3c4ncc(Br)cc4C=Cc4cc(Cl)cc(Br)c43)CC2)CC1 (single isomer, unassigned) [Compound 15]
 | 0.016 | 142 to 143 | NC(=O)N1CCC(CC(=O)N2CCC(C3c4ncc(Br)cc4C=Cc4cc(Cl)cc(Br)c43)CC2)CC1 (single isomer, unassigned) [Compound 16]
